From patent US11679110B2, “Methods of treating disorders using CSF1R inhibitors” (Deciphera Pharmaceuticals, LLC, priority 2018, dated 2023)

How the values were obtained:
[1] = test system: CD11b+/F4/80+ intratumoral macrophages; test: Syngeneic MC38 mouse model of colorectal cancer, tumor-associated macrophages by flow cytometry, 7 days of treatment; format: in vivo; details: MC38 mice, seven days
Experimental: The protocol and procedures involving the care and use of animals in the syngeneic MC38 mouse xenograft models below were reviewed and approved by the Institutional Animal Care and Use Committee (IACUC) of CrownBio (Taicang Jiangsu Province, China) prior to conduct. During the study, the care and use of animals was conducted in accordance with the regulations of the Association for Assessment and Accreditation of Laboratory Animal Care (AAALAC). All mice had food and water ad libitum. […] In the first experiment, six- to eight-week old female C57BL/6 mice were inoculated subcutaneously in the right lower flank with one million MC38 tumor cells in Phosphate Buffered Saline. […] Tumor volume and body weight were measured thrice weekly. Tumor burden (mg) was estimated from caliper measurements by the formula: tumor burden (mg=mm^3)=(length×width^2)/2. Tumors were collected at 2 hours post the 7th dose on day 18 and freshly processed to assess infiltrating tumor-associated macrophages by flow cytometry using antibodies to CD11b+, F4/80, and CD45+. First, tumors were washed in phosphate-buffered saline and treated with collagenase and DNase. After treatment, cells were repeatedly passed through a 70 μm cell strainer. Cells were further washed, resuspended in red blood cell lysing buffer, then washed again. […]

CD16+ monocytes = test: Depletion of CSF1R-expressing (CD16+) monocytes in peripheral blood of patients, flow cytometry; format: in vivo, human; details: C2D1 compared to C1D1
Experimental: (§1) PK analysis was conducted on all 38 patients. Serial blood samples were collected for PK and took place on either Day −7, Cycle 1, Day 1 (C1D1) and C2D1 at pre-dose, 0.5, 1, 2, 4, 6, 8, 10-12, and 24 hr time points or Day −7, C1D1, C1D8, and C2D1 at pre-dose, 1, 2, 4, 6, and 8 hr time points, or C1D1, C1D8, and C2D1 at pre-dose, 1, 2, 4, 6, and 8 hr time points. High fat meal was given prior to dosing of Compound 1 on Day −7. PD effects were measured by two methodologies: 1) depletion of CSF1R-expressing monocytes in peripheral blood (Cohorts 1-7) from C1D1, C1D15 and C2D1; and 2) increase of plasma levels of CSF1 and IL-34, the ligands for CSF1R (Cohorts 1-7) on C1D1, C1D15, and C2D1. For the CD16^+ monocyte assay, whole blood collected in an EDTA vacutainer was aliquoted into tubes and incubated with fluorescently-labeled antibodies (CD14-Alexa488 (BD Pharmingen); CD16-PE-Cy7 (BD Pharmingen); and TIE2-APC (R&D Systems). After incubation, red blood cells were lysed, and the remaining cells were washed several times before being analyzed on a flow cytometer. For the plasma CSF1 assay or IL-34, whole blood collected in an EDTA vacutainer was centrifuged, and the plasma was collected and frozen. Plasma levels of CSF1 or IL-34 were measured using a commercial ELISA kit (R&D Systems).

CSF1 = test: Plasma CSF1 levels in patients, ELISA; format: in vivo, human; details: average at C2D1 vs C1D1
Experimental: as §1

[2] = test system: diffuse-type tenosynovial giant cell tumor; test: Tumor response and symptoms in DTGCT patients (case studies), RECIST version 1.1; format: in vivo, human
From the text: Tumor response will be assessed by tumor type using the following criteria: for solid tumors and DTGCT: RECIST, Version 1.1; and for bone-only disease: a new lesion(s) identified by bone scan will be considered as disease progression.
Additional descriptions of case studies of patients with DTGCT treated within this study are provided below: […]

[3] = Sprague-Dawley, rat, in vivo, 4 weeks
[4] = rat, in vivo
[5] = dog, 13-week
[6] = human, in vivo
in vivo [7] = details: Sprague-Dawley, rat
in vivo [8] = details: beagle, dog

Cc1nc(-c2cnc(NC(C)C)n(C)c2=O)ccc1Oc1ccnc(-c2cnn(C)c2)c1 [Compound 1, 2-(isopropylamino)-3-methyl-5-(6-methyl-5-((2-(1-methyl-1H-pyrazol-4-yl)pyridin-4-yl)oxy)pyridin-2-yl)pyrimidin-4(3H)-one]
reduction in CD11b+/F4/80+ intratumoral macrophages (as a percent of CD45+ cells in the tumor) ([1]; 5, 10, 15 mg/kg QD oral): dose-dependent reduction
reduction of intratumoral macrophages (as a percent of CD45+ cells in the tumor) ([1]; high dose (15 mg/kg QD oral)): ~67%
decrease in levels of CSF1R-expressing monocytes (CD16+ monocytes; Cohort 2): ~48%
decrease in levels of CSF1R-expressing monocytes (CD16+ monocytes; Cohort 3): ~54%
decrease in levels of CSF1R-expressing monocytes (CD16+ monocytes; Cohort 4): ~79%
decrease in levels of CSF1R-expressing monocytes (CD16+ monocytes; Cohort 5): ~98%
increase in plasma CSF1 (CSF1; Cohort 1): 6 fold
increase in plasma CSF1 (CSF1; Cohort 2): 1.5 fold
increase in plasma CSF1 (CSF1; Cohort 3): 2.9 fold
increase in plasma CSF1 (CSF1; Cohort 4): 3.2 fold
increase in plasma CSF1 (CSF1; Cohort 5): 43 fold
symptoms ([2]; DTGCT Patient 1, Cohort 5): Improved pain and swelling and effusion were nearly resolved in the first cycle
decrease in tumor size from baseline ([2]; DTGCT Patient 1, Cohort 5 (30 mg twice weekly maintenance), C3D1): 48%
decrease in tumor size from baseline ([2]; DTGCT Patient 1, Cohort 5, C5D1): 61%
decrease in tumor size from baseline ([2]; DTGCT Patient 1, Cohort 5, C7D1): 75%
decrease in tumor size from baseline ([2]; DTGCT Patient 1, Cohort 5, C10D1): 84%
symptoms ([2]; DTGCT Patient 2, Cohort 5): pain improvement, increased range of motion, and less stiffness
decrease in tumor size from baseline ([2]; DTGCT Patient 2, Cohort 5, C3D1): 25%
symptoms ([2]; DTGCT Patient 3, Cohort 5): rapid symptom improvement, with less pain and swelling and improved range of motion after the first cycle
decrease in tumor size from baseline ([2]; DTGCT Patient 3, Cohort 5, C3D1): 24%
tumor response ([2]; DTGCT patient): up to 84%
STD10 (Severely Toxic Dose in 10% of animals) [3]: 15 mg/kg/day
STD10 ([4]; Sprague-Dawley, 13 weeks): 7.5 mg/kg/day
increases in AST, ALT, GLDH and ALP activities [4]: minimal or mild
microscopic liver changes [5]: without corresponding microscopic liver changes
increases in AST, GLDH and creatine kinase activities ([5]; 8 mg/kg/day): minimal or mild
Grade 3/4 elevated AST/ALT events, elevated bilirubin levels or hepatic AEs [6]: did not exhibit
NOAEL at 4 weeks (in vivo [7]): 5 mg/kg/day
NOAEL at 13 weeks (in vivo [8]): 8 mg/kg/day
